Results reported in patent US10456443B2, “Peptidyl calcineurin inhibitors” (OHIO STATE INNOVATION FOUNDATION, priority 2014, dated 2019).
Non-standard residues stand in square brackets, D forms with d. Residues, ends and D or L forms follow the SMILES beside them. Tle = CC(C)(C)[C@H](N)C(=O)O

Legend:
macrophage cells = experiment: Inflammatory cytokine production in macrophage cells with LPS stimulation; format: cell-based
[1] = tested on: HeLa cells stably transfected with GFP-NFAT; experiment: GFP-NFAT translocation assay, live-cell confocal microscopy; settings: 500 nM peptide, 2 h preincubation, 10 min ionomycin stimulation
[2] = Cellular uptake of cell penetrating peptides; format: cell-based; settings: versus R11
calcineurin (CN) [3] = target: T1, calcineurin (CN) (Homo sapiens, UniProt Q08209); settings: read-out: IC50, inhibition of the binding of FITC-ZIZIT to CN; FITC-ZIZIT 100 nM, CN 150 nM, unlabeled competing peptide 0-20 μM
calcineurin (CN) [4] = target: T1, calcineurin (CN)

T1 sequence (Q08209 2-347 limits assumed): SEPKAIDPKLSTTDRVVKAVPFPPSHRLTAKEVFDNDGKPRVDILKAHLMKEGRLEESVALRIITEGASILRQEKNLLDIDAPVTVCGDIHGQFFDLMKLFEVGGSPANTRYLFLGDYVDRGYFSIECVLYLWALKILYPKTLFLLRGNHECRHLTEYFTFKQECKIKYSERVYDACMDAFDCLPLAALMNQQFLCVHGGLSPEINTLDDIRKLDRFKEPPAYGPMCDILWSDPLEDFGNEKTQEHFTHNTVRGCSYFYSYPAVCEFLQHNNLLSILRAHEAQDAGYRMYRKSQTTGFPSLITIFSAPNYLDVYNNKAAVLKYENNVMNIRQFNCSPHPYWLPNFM

Ac-RRRRRRRRRRRC-SPDP-GPHPZIZITG-Cys(Ψ^Me,MePro)-HEEG-Propyl [R11-ZIZIT-cisPro]
attenuating the production of inflammatory cytokines (macrophage cells; macrophages, 1 μM, compared with 50 μM R11-VIVIT): significantly more effective than 50 μM R11-VIVIT | fold more potent than R11-VIVIT in cellular assays (macrophage cells; versus R11-VIVIT): approximately 100 fold | inhibition of the nuclear translocation of GFP-NFAT [1]: ~95%

cyclo(fΦRrRrQ) [CP9]
fold more active than R11 for cellular uptake [2]: approximately 12 fold

CC[C@H](C)[C@H](NC(=O)[C@@H](NC(=O)[C@@H](NC(=O)[C@@H](NC(=O)[C@@H]1CCCN1C(=O)[C@H](Cc1c[nH]cn1)NC(=O)[C@@H]1CCCN1C(=O)CN)C(C)(C)C)[C@@H](C)CC)C(C)(C)C)C(=O)N[C@H](C(=O)NCC(=O)N1CCC[C@H]1C(=O)N[C@@H](Cc1c[nH]cn1)C(=O)N[C@@H](CCC(=O)O)C(=O)N[C@@H](CCC(=O)O)C(N)=O)[C@@H](C)O [ZIZIT, GPHPZIZITGPHEE] (H-GPHP[Tle]I[Tle]ITGPHEE-NH2)
IC50 (calcineurin (CN) [3]): 280 ± 90 nM | fold higher affinity for CN than VIVIT (calcineurin (CN) [4]; ZIZIT versus VIVIT): 10 fold | Kd (calcineurin (CN) [4]; read-out: KD against CN, FA assay, N-terminal 5(6)-SFX labeled peptides (100 nM)): 43 ± 12 nM
